Like-named read-outs stand apart in the source and are kept apart here.
Key:
HT29 = assay: LDH cell viability assay, colon cancer cells; assay type: cell-based; settings: Homo sapiens, HT-29; for IC50: HT29, 24 h, LDH assay
Method: (§1) Normal prostate epithelial cells (PNT2), two prostate cancer cell lines (Du145 and PC3), human keratinocytes (HaCaT), two melanoma cell lines (A375 and HTB140) and two colon cancer cell lines (HT29 and Caco-2) were treated with 3 at a concentration range 1.0–50.0 µg/mL. Viability of the cells was estimated using lactate dehydrogenase (LDH) assay.
(§2) Cytotoxic activity of 3 was tested on human cancer and normal cells, grouped in three panels: prostate, skin and gastrointestinal. The prostate panel comprised prostate cancer cell lines DU145 (ATCC HTB-81) and PC3 (ATCC CRL-1435) and prostate normal epithelial cells PNT2 (ECACC 95012613). Melanoma cell lines A375 (ATCC CRL-1619) and HTB140 (ATCC Hs 294T) together with human keratinocytes HaCaT (obtained as a kind gift of Prof. Marta Michalik, Department of Cell Biology, Jagiellonian University) were included in the skin panel. Two colon cancer cell lines, namely Caco-2 (ATCC HTB-37) and HT29 (ATCC HTB-38), constituted the gastrointestinal panel. Du145 cells were grown in a modified Eagle’s medium with low (1.0 g/L) glucose concentration; HT29, PC3 and PNT-2 cells were grown in Dulbecco’s modified Eagle’s medium (DMEM) and F12 HAM Nutrient Mixture; Caco-2 cells were grown in modified Eagle’s medium with nonessential amino acids (NEAA); and melanoma cells and keratinocytes were maintained in modified Eagle’s medium with high (4.5 g/L) glucose concentration. The culture media contained antibiotics and 10% fetal bovine serum (FBS). All cultures were maintained at 37 °C in a humidified, 5% CO2-containing atmosphere.
(§3) The examined compound (3) was diluted in the culture media from freshly made stock solution in MeOH (10 mg/mL) to the working concentrations (from 0 to 50 μg/mL). Cell viability was determined as described previously. […] Then, the culture medium was replaced with the medium containing different concentrations of the assessed compound (1–50 μg/mL). After 24 h of incubation, the viability of the cells was determined using colorimetric lactate dehydrogenase (LDH) assay in comparison to the controls to which corresponding aliquots of MeOH diluted with culture media were added. Cells grown in the medium without the tested compound were used as control I (negative), and the positive control (control II) was obtained by incubation of the cells in the medium containing 1% Triton X-100. LDH released from the damaged cells into the cell culture medium was quantified by measuring the absorbance at 490 nm using a Synergy II Biotek microplate reader. Cytotoxicities of the examined compounds were calculated as follows: ((absorbance of the tested sample−absorbance of control I)/(absorbance of control II−absorbance of control I)) × 100. Results were means of three independent measurements (± SD). Doxorubicin (Ebewe Pharma G.m.b.H., Unterach, Austria) was used as a reference cytostatic drug.

PNT2 = assay: LDH cell viability assay, normal prostate epithelial cells; assay type: cell-based, human; settings: Homo sapiens, PNT2, 24 h, LDH assay
Method: as §1, §2, §3

[1] = as above; assay type: cell-based, human; settings: human, PNT2 normal prostate epithelial cells, 24 h, read-out: Cell Viability (%) ± SD
Method: as §1, §2, §3

[2] = value in parentheses, read-out: IC50 (IC50 µM) (converted)

C=C1C(=O)O[C@H]2[C@H]1[C@@H](O)[C@H](OC(=O)CC(C)C)[C@H](C)CCC(=O)[C@](C)(O)[C@@H]2OC(=O)C(C)C [Compound 3]
viability at 1 µg/mL (HT29; HT29, 1 µg/mL, 24 h, read-out: Cell Viability (%) ± SD): 69.3 ± 1.75% | viability at 3 µg/mL (HT29; HT29, 3 µg/mL, 24 h, read-out: Cell Viability (%) ± SD): 58 ± 1.66% | viability at 5 µg/mL (HT29; HT29, 5 µg/mL, 24 h, read-out: Cell Viability (%) ± SD): 49.2 ± 2% | viability at 10 µg/mL (HT29; HT29, 10 µg/mL, 24 h, read-out: Cell Viability (%) ± SD): 38 ± 2.29% | viability at 20 µg/mL (HT29; HT29, 20 µg/mL, 24 h, read-out: Cell Viability (%) ± SD): 24.4 ± 1.1% | viability at 30 µg/mL (HT29; HT29, 30 µg/mL, 24 h, read-out: Cell Viability (%) ± SD): 10.4 ± 1.09% | viability at 50 µg/mL (HT29; HT29, 50 µg/mL, 24 h, read-out: Cell Viability (%) ± SD): 0.79 ± 0.78% | IC50 (HT29; [2]): 13.3 µM | IC50 (HT29; read-out: IC50): 6.23 ± 0.89 mg/L | IC50 (PNT2; [2]): 35 µM | IC50 (PNT2; read-out: IC50): 16.4 ± 0.4 mg/L | viability at 24 h, 1 µg/mL ([1]; PNT2, 1 µg/mL): 87.1 ± 1.79% | viability at 24 h, 3 µg/mL ([1]; PNT2, 3 µg/mL): 77.2 ± 1.32% | viability at 24 h, 5 µg/mL ([1]; PNT2, 5 µg/mL): 69.4 ± 0.97% | viability at 24 h, 10 µg/mL ([1]; PNT2, 10 µg/mL): 52.8 ± 2.31% | viability at 24 h, 20 µg/mL ([1]; PNT2, 20 µg/mL): 32.5 ± 1.84% | viability at 24 h, 30 µg/mL ([1]; PNT2, 30 µg/mL): 21.4 ± 0.45% | viability at 24 h, 50 µg/mL ([1]; PNT2, 50 µg/mL): 3.29 ± 1.27%

Source: publication PMC8347481, “Germacranolides from Carpesium divaricatum: Some New Data on Cytotoxic and Anti-Inflammatory Activity” (Molecules, 2021)
